Source: patent US10125078B1, “NSAID derivatives of omega-3 polyunsaturated acids as gamma secretase modulators” (Jiva Pharma, Inc., priority 2015, dated 2018)
Values joined by “and” are separate entries in the source; they are usually repeats but may differ in a detail not shown here. Equal entries are not always repeated. Where two headings read alike, the source gives them in different places. Blank lines part the entries; values can stand above or below the compound they belong to.

Tests used:
gamma-secretase = target: T1, gamma-secretase (Homo sapiens, UniProt P49768); test: gamma-secretase modulating activity in cell cultures of human neuroblastoma SHSY-5 cells, intracellular Aβ x-40 by ELISA; format: cell-based; conditions: for average signal triplicates: cells incubated 18 h, ELISA OD 450 nm; for signal nomalised to cells: normalised to collected cell mass; for sign-bkgr: signal minus background; for experiment 1 / experiment 2 / experiment 3: Aβ ELISA signal, 0 nM about 100; for bestfit2 / bestfit3 / bestfit1: fitted curve; for IC50: read-out: calculated IC50
T1 construct: Fresh human neuroblastoma cells SHSY-5 were purchased from ATCC; host or cells: SH-SY5Y human neuroblastoma cells, untransfected
Procedure: The gamma-secretase modulating activity of Jiva compounds were determined in Cell Cultures of fresh human neuroblastoma SHSY-5 cells. The enzyme-linked immunosorbent assay (ELISA) is one of the most commonly used, reliable, and sensitive methods for quantitating the A β peptides. The detailed methods for the recovery of both soluble and deposited A β from brain tissue and the subsequent quantitation of the peptides by ELISA are thoroughly described in literature such as Stephen D. Schmidt, et al., “Amyloid, Enzyme-linked immunosorbent assay, ELISA, Extraction, Quantification”, Methods in Molecular Biology, vol. 849, DOI 10.1007/978-1-61779-551-0_34, Springer Science+Business Media, LLC 2012; Zeljko M. Svedruzic, et al., “Modulators of γ-Secretase Activity Can Facilitate the Toxic Side-Effects and Pathogenesis of Alzheimer's Disease”, PLOS ONE, 1 Jan. 2013|Volume 8|Issue 1; Catherine R. Burton et al., “The Amyloid-β Rise and γ-Secretase Inhibitor Potency Depend on the Level of Substrate Expression” Aug. 22, 2008 The Journal of Biological Chemistry 283, 22992-23003.
The well-studied γ-secretase inhibitor, semagacestat (WIKI) was used as a positive control in the above assays.
The following are procedures used for screening gamma-secretase modulating activity of Jiva compounds in cell cultures.
Protocol for Growing SHSY-5 Cells:
Fresh human neuroblastoma cells SHSY-5 were purchased from ATCC in the […]. All SHSY-5 cells were propagated and grown in p75 flasks, following the supplier's instructions. Briefly, SH-SY5Y cells were grown to confluence in Dulbecco's Modified Eagles Medium (DMEM) supplemented with 2 mM L-glutamine, 1× nonessential amino acids, and 0.22 micrometers filtered 10% heat inactivated fetal bovine serum (FBS) in a 5% CO2 humidified incubator at 37° C. Cultures were split twice a week and cells were seeded at 2.5×10^4 cells/cm^2. The cells were detached from the bottles after two phosphate buffer washes that were followed by 5 min treatment with 0.25% trypsine solution.
Protocol for Preparation of Jiva Compounds and the Initial Screening:
Jiva compounds were dissolved under sterile conditions in different volumes of molecular biology grade dimethylsulfoxide (DMSO) so that the final concentration was 200 mM, with the goal to screen in a concentration range from 50 to 1000 μM. Thus, between 1 μL to 20 µL of DMSO solution of each Jiva compound was added to 4 mL of sterile cell media with FBS adjusted to 1%. The cells were incubated with different compounds for 18 h (i.e. overnight). Following the incubation cells were tested for viability and morphology. The first viability criteria was attachment to the surface, the second viability criteria was resistance to trypan blue uptake. Only viable cells were harvested for ELISA screening.
Confluent cells were scraped from p25 cell-culture bottles and collected in pellets by centrifugation for 5 mins at 1000 g. To measure intracellular amyloid β, the centrifugation helps in concentrating Aβ1-40 peptides for measurements. About 40 micro grams of cell can be recovered from 4 mL cell medium in p25 cell culture bottles. The cell pellets were re-suspended in RIPA buffer and incubated on ice for 30 min.
RIPA buffer means 150 mM sodium chloride; 1% NP-40; 0.5% sodium deoxycholate; 0.1% SDS; 50 mM Tris pH 8.0.
Following lysis, the cell debris was separated by centrifugation, 1 h at 40,000×g. The clear supernatant was collected for ELISA measurements that followed immediately after the centrifugation.
ELISA measurements used IBL ELISA kits for Aβ x-40 using manufacturer's protocol and supplied standards. Briefly, for each measurement 100 μL sample was prepared from 12.5 μL lysis buffer and 87.5 μL ASSAYBUF solutions in each well. ASSAYBUF solution were supplied in the kit, and used to incubate cell lysate with anti-amyloid antibody attached to the wells in ELISA plates. The plate covered with plate-lid was incubated with gentle shaking overnight at 4° C. […]

4 year old children = conditions: cited from earlier work
Aβ42 peptide = conditions: cited from earlier work
[1] = compared with tarenflurbil; cited from earlier work
mild AD patients = conditions: cited from earlier work
[2] = 100000.0 nM, listed as JIVA002B
[3] = 1000000.0 nM, listed as JIVA002B

average signal triplicates (gamma-secretase; 7.13 microM): 0.300 | signal nomalised to cells (gamma-secretase; 7.13 microM): 0.233 | sign-bkgr (gamma-secretase; 7.13 microM): 0.246
SMILES: CC/C=C\C/C=C\C/C=C\C/C=C\C/C=C\CCCCC1(C(=O)OC(C)(C)C)CC1 [JIVA 24, EPA Cyclopropyl-fibrate t-butyl Ester]

SMILES: CC/C=C\C/C=C\C/C=C\C/C=C\C/C=C\C/C=C\CCC(=O)O [DHA, cis,cis,cis,cis,cis,cis-4,7,10,13,16,19-docosahexaenoic acid]
effects on cognitive function (4 year old children): beneficial effects

SMILES: CC(C)C[C@H](C(=O)O)c1cc(-c2ccc(C(F)(F)F)cc2)cc(-c2ccc(C(F)(F)F)cc2)c1 [JNJ-40418677]
Aβ42 IC50 (Aβ42 peptide): potent | brain penetration [1]: greater brain penetration

average signal triplicates (gamma-secretase; 20 microM): 0.355 | signal nomalised to cells (gamma-secretase; 20 microM): 0.201 | sign-bkgr (gamma-secretase; 20 microM): 0.236
SMILES: CC/C=C\C/C=C\C/C=C\CCCCCCCCC1(C(=O)O)CC1 [JIVA 27, ALA Cyclopropyl Fibrate]

experiment 1 (gamma-secretase; 21.4 nM): 101 | experiment 2 (gamma-secretase; 21.4 nM): 103 | experiment 3 (gamma-secretase; 21.4 nM): 104 | bestfit2 (gamma-secretase; 21.4 nM): 100.0 | bestfit3 (gamma-secretase; 21.4 nM): 100.0 | bestfit1 (gamma-secretase; 21.4 nM, listed as JIVA002B): 100.0 and 99.9 | experiment 1 (gamma-secretase; 74.1 nM): 98 | experiment 2 (gamma-secretase; 74.1 nM): 102 | experiment 3 (gamma-secretase; 74.1 nM): 108 | bestfit2 (gamma-secretase; 74.1 nM): 99.9 | bestfit1 (gamma-secretase; 74.1 nM, listed as JIVA002B): 99.8 and 99.7 | bestfit3 (gamma-secretase; 74.1 nM, listed as JIVA002B): 99.9 and 99.8 | experiment 1 (gamma-secretase; 100.0 nM): 102 | experiment 2 (gamma-secretase; 100.0 nM): 99 | experiment 3 (gamma-secretase; 100.0 nM): 97 | bestfit1 (gamma-secretase; 100.0 nM, listed as JIVA002B): 99.8 and 99.6 | bestfit2 (gamma-secretase; 100.0 nM, listed as JIVA002B): 99.9 and 99.6 | bestfit3 (gamma-secretase; 100.0 nM, listed as JIVA002B): 99.9 and 99.5 | experiment 1 (gamma-secretase; 213.8 nM): 101 | experiment 2 (gamma-secretase; 213.8 nM): 95 | experiment 3 (gamma-secretase; 213.8 nM): 100 | bestfit1 (gamma-secretase; 213.8 nM, listed as JIVA002B): 99.5 and 99.1 | bestfit2 (gamma-secretase; 213.8 nM, listed as JIVA002B): 99.7 and 99.6 | bestfit3 (gamma-secretase; 213.8 nM, listed as JIVA002B): 99.7 and 99.5 | experiment 1 (gamma-secretase; 741.3 nM): 97 | experiment 2 (gamma-secretase; 741.3 nM): 100 | experiment 3 (gamma-secretase; 741.3 nM): 94 | bestfit1 (gamma-secretase; 741.3 nM, listed as JIVA002B): 98.5 and 97.0 | bestfit2 (gamma-secretase; 741.3 nM, listed as JIVA002B): 99.1 and 98.6 | bestfit3 (gamma-secretase; 741.3 nM, listed as JIVA002B): 99.0 and 98.3 | experiment 2 (gamma-secretase; 1000.0 nM): 101 | experiment 3 (gamma-secretase; 1000.0 nM): 104 | experiment 1 (gamma-secretase; 1000.0 nM, listed as JIVA002B): 96 and 95 | bestfit1 (gamma-secretase; 1000.0 nM, listed as JIVA002B): 97.8 and 96.0 | bestfit2 (gamma-secretase; 1000.0 nM, listed as JIVA002B): 99.8 and 98.2 | bestfit3 (gamma-secretase; 1000.0 nM, listed as JIVA002B): 98.6 and 97.8 | experiment 1 (gamma-secretase; 2138.0 nM): 90 | experiment 2 (gamma-secretase; 2138.0 nM): 98 | experiment 3 (gamma-secretase; 2138.0 nM): 90 | bestfit2 (gamma-secretase; 2138.0 nM, listed as JIVA002B): 97.5 and 96.2 | bestfit3 (gamma-secretase; 2138.0 nM, listed as JIVA002B): 97.1 and 95.4 | experiment 2 (gamma-secretase; 7413.1 nM): 85 | experiment 1 (gamma-secretase; 7413.1 nM, listed as JIVA002B): 90 and 75 | experiment 3 (gamma-secretase; 7413.1 nM, listed as JIVA002B): 96 and 79 | bestfit1 (gamma-secretase; 7413.1 nM, listed as JIVA002B): 85.6 and 76.4 | bestfit2 (gamma-secretase; 7413.1 nM, listed as JIVA002B): 91.9 and 87.9 | bestfit3 (gamma-secretase; 7413.1 nM, listed as JIVA002B): 90.5 and 85.6 | experiment 2 (gamma-secretase; 10000.0 nM): 85 | experiment 1 (gamma-secretase; 10000.0 nM, listed as JIVA002B): 88 and 71 | bestfit1 (gamma-secretase; 10000.0 nM, listed as JIVA002B): 81.5 and 70.6 | bestfit2 (gamma-secretase; 10000.0 nM, listed as JIVA002B): 89.4 and 84.4 | bestfit3 (gamma-secretase; 10000.0 nM, listed as JIVA002B): 87.7 and 81.5 | experiment 1 (gamma-secretase; 21379.5 nM, listed as JIVA002B): 73 and 58 | experiment 2 (gamma-secretase; 21379.5 nM, listed as JIVA002B): 73 and 62 | experiment 3 (gamma-secretase; 21379.5 nM, listed as JIVA002B): 79 and 64 | bestfit1 (gamma-secretase; 21379.5 nM, listed as JIVA002B): 57.3 and 52.9 | bestfit2 (gamma-secretase; 21379.5 nM, listed as JIVA002B): 79.7 and 71.6 | bestfit3 (gamma-secretase; 21379.5 nM, listed as JIVA002B): 76.9 and 67.3 | experiment 2 (gamma-secretase; 74131.0 nM): 46 | experiment 1 (gamma-secretase; 74131.0 nM, listed as JIVA002B): 28 and 18 | experiment 3 (gamma-secretase; 74131.0 nM, listed as JIVA002B): 57 and 33 | bestfit2 (gamma-secretase; 74131.0 nM, listed as JIVA002B): 53.1 and 42.1 | bestfit3 (gamma-secretase; 74131.0 nM, listed as JIVA002B): 48.9 and 37.2 | experiment 1 (gamma-secretase; [2]): 26 and 13 | experiment 2 (gamma-secretase; [2]): 49 and 33 | experiment 3 (gamma-secretase; [2]): 46 and 27 | bestfit2 (gamma-secretase; [2]): 45.7 and 35.1 | bestfit3 (gamma-secretase; [2]): 41.5 and 30.5 | experiment 1 (gamma-secretase; 1000000.0 nM): 2 | experiment 2 (gamma-secretase; 1000000.0 nM): 8 | experiment 3 (gamma-secretase; 1000000.0 nM): 2 | bestfit1 (gamma-secretase; [3]): 4.2 and 2.3 | bestfit2 (gamma-secretase; [3]): 7.7 and 5.1 | bestfit3 (gamma-secretase; [3]): 6.6 and 4.2 | average signal triplicates (gamma-secretase; 20 microM): 0.162 | signal nomalised to cells (gamma-secretase; 20 microM): 0.034 | sign-bkgr (gamma-secretase; 20 microM): 0.042 | IC50 (gamma-secretase; first, experiment 1): 44 µM and 24 µM | IC50 (gamma-secretase; second, experiment 2): 84 µM and 54 µM | IC50 (gamma-secretase; third, experiment 3): 71 µM and 44 µM
SMILES: CC/C=C\C/C=C\C/C=C\C/C=C\C/C=C\CCCCC(C(=O)O)C1CC1 (racemic) [JIVA 28, EPA Cyclopropyl-acetic acid-fibrate]

signal nomalised to cells (gamma-secretase; 20 microM): 0.209 and 0.130 | sign-bkgr (gamma-secretase; 20 microM): 0.316 and 0.173
SMILES: CC/C=C\C/C=C\C/C=C\CCCCCCCCC1(C(=O)OC(C)(C)C)CC1 [JIVA 25, ALA Cyclopropyl-fibrate t-butyl Ester]

average signal triplicates (gamma-secretase; 2 microM): 0.12 | signal nomalised to cells (gamma-secretase; 2 microM): 0.000 | sign-bkgr (gamma-secretase; 2 microM): 0
SMILES: CC(C)[C@H](O)C(=O)N[C@@H](C)C(=O)N[C@@H]1C(=O)N(C)CCc2ccccc21 [SEMAGACESTAT, semagacestat, reference compound]

SMILES: O=C(O)C1(c2ccc(-c3ccc(Cl)c(Cl)c3)c(F)c2)CC1 [CHF-5074]
Aβ42 IC50 (Aβ42 peptide): potent | brain penetration [1]: greater brain penetration

SMILES: C[C@@H](C(=O)O)c1ccc(-c2ccccc2)c(F)c1 [tarenflurbil]
potency at inhibiting formation of toxic Aβ42 peptide (Aβ42 peptide): low potency | outcome of large scale clinical trials (mild AD patients): failed large scale clinical trials

average signal triplicates (gamma-secretase; 20 microM): 0.141 | signal nomalised to cells (gamma-secretase; 20 microM): 0.026 | sign-bkgr (gamma-secretase; 20 microM): 0.021
SMILES: CC/C=C\C/C=C\C/C=C\CCCCCCCCC(C(=O)O)C1CC1 (centres unmarked) [JIVA 29, ALA Cyclopropyl Acetic Acid Fibrate]
